From patent US11607454B2, “Devices and processes for Cherenkov-activated nuclear-targeted photodynamic therapy” (UNIVERSITY HEALTH NETWORK, priority 2016, dated 2023)

Columns and labels:
[1] = system: Pancreatic cells (BxPC-3); test: phospho-gamma H2AX immunofluorescence assay of DNA damage after 18 MV X-ray irradiation generating Cherenkov light; format: cell-based; conditions: BxPC-3 cells, 4 micrograms per ml, 6 h incubation, 10 Gy X-ray, read 30 minutes after irradiation, +/- 1 standard deviation
Protocol: Following preparation of the nuclear-targeted copolymer-photosensitizer micelles (NPs) as above, tests were carried out of the effect on pancreatic cancer cells in tissue culture (in vitro) of X-ray irradiation under conditions that generate Cherenkov light. Pancreatic cells (BxPC-3: ATCC, VA, USA) were selected since treatment of pancreatic cancer is one example of how the current invention might be applied to address an unmet clinical need for a minimally invasive therapy for this highly fatal disease where conventional treatments such as radiation or chemotherapy are inadequate.
Cells were incubated with NPs with water as the vehicle. […]
At 30 minutes after irradiation, the damage to DNA in the cells was measured using phospho-gamma H2AX immunofluorescence assay, similar to that used for example by Fraser et al. (2012). […] The fluorescence was imaged on a confocal fluorescence microscope where the red fluorescence (488+/−10 nm excitation, >505 nm detection) corresponding to DNA double strand breaks could be visualized on the […] DAPI fluorescence background (405+/−10 nm excitation, 460+/−25 nm detection) and the intensity quantified. The red fluorescence intensity counts were integrated over 10-18 cells for each treatment condition. […]

cells in vitro = conditions: conjugation to branched peptides (loligomers) with nuclear-targeting sequences; cited from earlier work

Row | Compound | Mean fluorescence intensity counts ([1]; Cherenkov blocked (blackout material)) | Mean fluorescence intensity counts ([1]; Cherenkov unblocked) | reduction of the required dose of photosensitizer by nuclear localization (cells in vitro)
1 | C1=Cc2nc1c(-c1ccccc1)c1nc(c(-c3ccccc3)c3ccc([nH]3)c(-c3ccccc3)c3ccc([nH]3)c2-c2ccccc2)C=C1 [TPP, tetraphenyl porphyrin] | 54.8 +/− 6.0 counts | 49.5 +/− 6.7 counts | –
2 | chlorine 6 | – | – | greater than 100 fold
